“And” between values parts separate entries of the source, which are not always exact repeats. Equal values may be shown once.
Legend:
Assay in all cases: Glasshouse trial on activity boost, post-emergence spraying, visual rating
Type in all cases: in vivo
[1] = test system: Setaria viridis (SETVI)
Method: (§1) Seeds of monocot and dicot weeds and crop plants are sown in sandy loam soil in wood fibre pots or in plastic pots, and are covered with soil and cultivated under good growth conditions in the glasshouse and also, during the vegetation period, outdoors outside the glasshouse. 2-3 weeks after sowing, the trial plants are treated at the one- to three-leaf stage. The test compounds, formulated as wettable powders (WP) or liquids (EC), are applied by spraying to the plants and the soil surface in various doses, with a water application rate of 300 l/ha (converted) and with the addition of penetrants (0.2% to 0.4%) and where appropriate an ammonium salt. After the trial plants had stood in the glasshouse for about 3 to 4 weeks under optimum growth conditions, the activity of the products was rated visually in comparison to untreated controls (activity in %, i.e. 0%=no activity or as control, 100%=all plants died).
(§2) For rapeseed oil methyl ester (RME) the following tables specify concentration in % a.i. by volume for ammonium sulphate (AMS) in g/l in the spray liquor.
(§3) ALOMY=Alopecurus myosuroides AVEFA=Avena fatua LOLMU=Lolium multiflorum SETVI=Setaria viridis

[2] = test system: Alopecurus myosuroides (ALOMY)
Method: as §1, §2
(§4) ALOMY=Alopecurus myosuroides AVEFA=Avena fatua LOLMU=Lolium multiflorum LOLRI=Lolium rigidum
as §3
(§5) ALOMY=Alopecurus myosuroides AVEFA=Avena fatua LOLMU=Lolium multiflorum SETVI=Setaria viridis BROER=Bromus erectus

[3] = test system: Avena fatua (AVEFA)
Method: as §1, §2, §4, §3, §5

[4] = test system: Lolium multiflorum (LOLMU)
Method: as §1, §2, §4, §3

[5] = test system: Lolium rigidum (LOLRI)
Method: as §1, §2, §4

[6] = 12.5 g/ha, RME (0.25%) + AMS (3.3 g/l)
[7] = 25 g/ha, RME (0.25%) + AMS (3.3 g/l)
[8] = 50 g/ha, RME (0.25%) + AMS (3.3 g/l)
[9] = 50 g/ha, RME (0.25%) + AMS (6.6 g/l)

Compound	Activity ([1]; 25 g/ha, RME (0.25%))	Activity [1, 7]	Activity ([1]; 50 g/ha, RME (0.25%))	Activity [1, 8]	Activity ([2]; 25 g/ha, RME (0.25%))	Activity [2, 7]	Activity ([3]; 25 g/ha, RME (0.25%))	Activity [3, 7]	Activity ([4]; 25 g/ha, RME (0.25%))	Activity [4, 7]	Activity ([2]; 50 g/ha, RME (0.25%))	Activity ([4]; 50 g/ha, RME (0.25%))	other results
CCc1cc(Br)cc(Cl)c1C1=C(O)C(C)(C2CC2)NC1=O (stereo not shown) [I-1-a-2]	20%	90%	50%	93%	–	–	–	–	–	–	–	–	Activity ([1]; 12.5 g/ha, RME (0.25%)): 5%; Activity [1, 6]: 60%
CCc1cc(Cl)cc(OC)c1-c1c(O)n2n(c1=O)CCCC2 [I-8-a-1]	–	–	–	–	50%	70%	40%	80%	80%	95%	–	–	Activity ([2]; 12.5 g/ha, RME (0.25%)): 5%; Activity [2, 6]: 50%; Activity ([3]; 12.5 g/ha, RME (0.25%)): 30%; Activity [3, 6]: 70%; Activity ([4]; 12.5 g/ha, RME (0.25%)): 10%; Activity [4, 6]: 70%
CCc1cc(Br)cc(C)c1C1=C(O)C2(CCC(OC)CC2)NC1=O (stereo not shown) [I-1-a-1]	30%	50%	40%	50%	–	–	–	–	–	–	–	–	–
CCc1cc(C)cc(OC)c1C1=C(O)C2CCCN2C1=O (stereo not shown) [I-1-a-3]	15%	70%	93%	95%	–	–	–	–	–	–	–	–	Activity ([1]; 100 g/ha, RME (0.25%)): 93%; Activity ([1]; 100 g/ha, RME (0.25%) + AMS (3.3 g/l)): 99%
CCc1cc(-c2ccc(Cl)cc2)cc(C)c1C1=C(O)C2(CCC(OC)CC2)OC1=O (stereo not shown) [I-2-a-1]	–	–	–	–	–	–	–	–	30%	–	30%	70%	Activity [2, 9]: 70%; Activity ([2]; 100 g/ha, RME (0.25%)): 30%; Activity ([2]; 100 g/ha, RME (0.25%) + AMS (6.6 g/l)): 70%; Activity ([5]; 25 g/ha, RME (0.25%)): 20%; Activity ([5]; 50 g/ha, RME (0.25%)): 40%; Activity [5, 9]: 80% and 40%
CCc1cc(Cl)ccc1C1=C(OC(=O)C(C)C)C2(CCC(C)CC2)NC1=O (stereo not shown) [I-1-b-1]	–	–	–	–	5%	25%	15%	60%	10%	25%	20%	10%	Activity [2, 8]: 75%; Activity ([3]; 50 g/ha, RME (0.25%)): 50%; Activity [3, 8]: 60%; Activity [4, 8]: 75%
CCc1cccc(CC)c1C1=C(O)[C@]2(CC[C@H](OC)CC2)NC1=O [I-1-a-4]	–	–	–	–	3%	50%	3%	10%	2%	75%	5%	5%	Activity [2, 8]: 70%; Activity ([3]; 50 g/ha, RME (0.25%)): 5%; Activity [3, 8]: 30%; Activity [4, 8]: 90%
